Laboratory results from paper PMC7377239, “Cardiovascular Effects of Polychlorinated Biphenyls and Their Major Metabolites” (Environmental Health Perspectives, 2020).
Counter-ions that a name gives are not always drawn. Like-named read-outs stand apart in the source and are kept apart here.

System: iCell endothelial cells (human iPSC-derived ECs)
Experiment: Tube formation (tubulogenesis) assay in iCell endothelial cells, 18 h
Assay type: cell-based
Settings: for minimal effective concentration / activity at 0.01 µM / activity at 0.1 µM / activity at 1 µM / activity at 10 µM / activity at 100 µM: Homo sapiens, Endothelial cell
In short: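 iCell ECs (passages 1–5) seeded 7,500 cells/well on reduced-growth-factor Geltrex in starvation medium, exposed overnight at 37°C to compounds in triplicate concentration–response (0.5% DMSO vehicle). Calcein AM staining, 4× imaging, angiogenesis image analysis; readouts normalized to vehicle, four-parameter logistic fit, POD at 1 SD of vehicle; 100 μM assigned NOAEL if no response.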

[1] = endothelial cells (endo), tube formation mtl, 18 hr, read-out: POD endo.mtl.18hr
[2] = iPSC-EC, 0.10 µM, 0.00 µM = 100.00
[3] = iPSC-EC, 10.00 µM, 0.00 µM = 100.00
[4] = iPSC-EC, 100.00 µM, 0.00 µM = 100.00
[5] = endothelial cells (endo), tube formation tlps, 18 hr, read-out: POD endo.tlps.18hr
[6] = endothelial cells (endo), tube formation tta, 18 hr, read-out: POD endo.tta.18hr
[7] = endothelial cells (endo), tube formation ttl, 18 hr, read-out: POD endo.ttl.18hr

Q: Which minimal effective concentration [1] does the source give for `Clc1ccc(Cl)c(-c2c(Cl)ccc(Cl)c2Cl)c1Cl` [(+)-PCB 136, 2,2′,3,3′,6,6′-hexachlorobiphenyl] here?
A: 63.5 µM

Q: And the activity at 0.01 µM (iPSC-EC, 0.01 µM, 0.00 µM = 100.00, read-out: endo.mtl.18hr)?
A: 115%

Q: And the activity at 0.01 µM (iPSC-EC, 0.01 µM, 0.00 µM = 100.00, read-out: endo.tta.18hr)?
A: 133%

Q: What about the activity at 0.01 µM (iPSC-EC, 0.01 µM, 0.00 µM = 100.00, read-out: endo.ttl.18hr) of the same molecule?
A: 135%

Q: And the activity at 0.1 µM (iPSC-EC, 0.10 µM, 0.00 µM = 100.00, read-out: endo.mtl.18hr)?
A: 113%

Q: And the activity at 0.1 µM (iPSC-EC, 0.10 µM, 0.00 µM = 100.00, read-out: endo.ttl.18hr)?
A: 132%

Q: What about the activity at 1 µM (iPSC-EC, 1.00 µM, 0.00 µM = 100.00, read-out: endo.mtl.18hr) of the same molecule?
A: 111%

Q: And the activity at 1 µM (iPSC-EC, 1.00 µM, 0.00 µM = 100.00, read-out: endo.tta.18hr)?
A: 134%

Q: What about the activity at 1 µM (iPSC-EC, 1.00 µM, 0.00 µM = 100.00, read-out: endo.ttl.18hr) of the same molecule?
A: 139%

Q: What about the activity at 10 µM (iPSC-EC, 10.00 µM, 0.00 µM = 100.00, read-out: endo.mtl.18hr) of the same molecule?
A: 107%

Q: And the minimal effective concentration (iPSC-EC, 100.00 = highest concentration tested, read-out: endo.mtl.18hr POD)?
A: 63.5 µM

Q: And the endo.tlps.18hr (iPSC-EC, 0.01 µM, 0.00 µM = 100.00)?
A: 101.49

Q: And the endo.tlps.18hr [2]?
A: 128.16

Q: And the endo.tta.18hr [2]?
A: 137.60

Q: And the endo.tlps.18hr (iPSC-EC, 1.00 µM, 0.00 µM = 100.00)?
A: 103.43

Q: What about the endo.tlps.18hr [3] of the same molecule?
A: 157.84

Q: What about the endo.tta.18hr [3] of the same molecule?
A: 197.38

Q: And the endo.ttl.18hr [3]?
A: 177.54

Q: What about the endo.mtl.18hr [4] of the same molecule?
A: 68.39

Q: What about the endo.tlps.18hr [4] of the same molecule?
A: 43.04

Q: What about the endo.tta.18hr [4] of the same molecule?
A: 78.91

Q: And the endo.ttl.18hr [4]?
A: 80.17

Q: `O=S(=O)(O)Oc1cccc(-c2ccc(Cl)cc2)c1` [3'-yl PCB 3 sulfate] was tested. Which activity at 0.01 µM (iPSC-EC tube formation, 18 hr, 0.01 µM, 0.00 µM control = 100.00, read-out: endo.mtl.18hr) did it give?
A: 93.5%

Q: What about the activity at 0.01 µM (iPSC-EC tube formation, 18 hr, 0.01 µM, 0.00 µM control = 100.00, read-out: endo.tlps.18hr) of the same molecule?
A: 81.8%

Q: And the activity at 0.01 µM (iPSC-EC tube formation, 18 hr, 0.01 µM, 0.00 µM control = 100.00, read-out: endo.tta.18hr)?
A: 112%

Q: And the activity at 0.01 µM (iPSC-EC tube formation, 18 hr, 0.01 µM, 0.00 µM control = 100.00, read-out: endo.ttl.18hr)?
A: 103%

Q: And the activity at 0.1 µM (iPSC-EC tube formation, 18 hr, 0.10 µM, 0.00 µM control = 100.00, read-out: endo.mtl.18hr)?
A: 87.9%

Q: And the activity at 0.1 µM (iPSC-EC tube formation, 18 hr, 0.10 µM, 0.00 µM control = 100.00, read-out: endo.tlps.18hr)?
A: 126%

Q: And the activity at 0.1 µM (iPSC-EC tube formation, 18 hr, 0.10 µM, 0.00 µM control = 100.00, read-out: endo.tta.18hr)?
A: 93%

Q: And the activity at 0.1 µM (iPSC-EC tube formation, 18 hr, 0.10 µM, 0.00 µM control = 100.00, read-out: endo.ttl.18hr)?
A: 88.2%

Q: What about the activity at 1 µM (iPSC-EC tube formation, 18 hr, 1.00 µM, 0.00 µM control = 100.00, read-out: endo.mtl.18hr) of the same molecule?
A: 91.5%

Q: What about the activity at 1 µM (iPSC-EC tube formation, 18 hr, 1.00 µM, 0.00 µM control = 100.00, read-out: endo.tlps.18hr) of the same molecule?
A: 103%

Q: And the activity at 1 µM (iPSC-EC tube formation, 18 hr, 1.00 µM, 0.00 µM control = 100.00, read-out: endo.tta.18hr)?
A: 108%

Q: And the activity at 1 µM (iPSC-EC tube formation, 18 hr, 1.00 µM, 0.00 µM control = 100.00, read-out: endo.ttl.18hr)?
A: 98.9%

Q: And the activity at 10 µM (iPSC-EC tube formation, 18 hr, 10.00 µM, 0.00 µM control = 100.00, read-out: endo.mtl.18hr)?
A: 70.7%

Q: What about the activity at 10 µM (iPSC-EC tube formation, 18 hr, 10.00 µM, 0.00 µM control = 100.00, read-out: endo.tlps.18hr) of the same molecule?
A: 99.4%

Q: And the activity at 10 µM (iPSC-EC tube formation, 18 hr, 10.00 µM, 0.00 µM control = 100.00, read-out: endo.tta.18hr)?
A: 63.7%

Q: What about the activity at 10 µM (iPSC-EC tube formation, 18 hr, 10.00 µM, 0.00 µM control = 100.00, read-out: endo.ttl.18hr) of the same molecule?
A: 60%

Q: And the activity at 100 µM (iPSC-EC tube formation, 18 hr, 100.00 µM, 0.00 µM control = 100.00, read-out: endo.mtl.18hr)?
A: 59.2%

Q: And the activity at 100 µM (iPSC-EC tube formation, 18 hr, 100.00 µM, 0.00 µM control = 100.00, read-out: endo.tlps.18hr)?
A: 33.7%

Q: And the activity at 100 µM (iPSC-EC tube formation, 18 hr, 100.00 µM, 0.00 µM control = 100.00, read-out: endo.tta.18hr)?
A: 59.5%

Q: What about the activity at 100 µM (iPSC-EC tube formation, 18 hr, 100.00 µM, 0.00 µM control = 100.00, read-out: endo.ttl.18hr) of the same molecule?
A: 60.4%

Q: What about the minimal effective concentration (iPSC-EC tube formation, 18 hr, top concentration 100.00 µM, read-out: endo.mtl.18hr POD) of the same molecule?
A: 0.58 µM

Q: And the minimal effective concentration (iPSC-EC tube formation, 18 hr, top concentration 100.00 µM, read-out: endo.tlps.18hr POD)?
A: 38.6 µM

Q: What about the minimal effective concentration (iPSC-EC tube formation, 18 hr, top concentration 100.00 µM, read-out: endo.tta.18hr POD) of the same molecule?
A: 11.6 µM

Q: What about the minimal effective concentration (iPSC-EC tube formation, 18 hr, top concentration 100.00 µM, read-out: endo.ttl.18hr POD) of the same molecule?
A: 8.75 µM

Q: With `Oc1ccc(-c2cccc(Cl)c2)cc1Cl` [4-OH-PCB 11] as the molecule, how does the minimal effective concentration [1] read?
A: 17.7 µM

Q: What about the minimal effective concentration [5] of the same molecule?
A: 52.5 µM

Q: And the minimal effective concentration [6]?
A: 15.8 µM

Q: And the minimal effective concentration [7]?
A: 16.1 µM

Q: Which minimal effective concentration [1] does the source give for `COc1ccc(-c2cccc(Cl)c2)cc1Cl` [4-OMe-PCB 11, 4-methoxy-3,3′-dichlorobiphenyl] here?
A: 100 µM

Q: And the minimal effective concentration [5]?
A: 28.4 µM

Q: What about the minimal effective concentration [6] of the same molecule?
A: 0.00169 µM

Q: And the minimal effective concentration [7]?
A: 0.00197 µM
